Patent US6544995B1, “Use of cysteine derivatives for preparing a medicine for treating pathologies resulting from the formation of heterotrimeric G protein” (Societe de Conseils de Recherches et d'Applications …, priority 1998, dated 2003)
Where two headings read alike, the source gives them in different places. Values belong to the compound of their own block, whether it stands above or below them. Where no end group is shown, it is not given here.

How the values were obtained:
MAP kinase = MAP kinase activity in MCF7 cells; format: cell-based, human; settings: for activity of the MAP kinase after EGF stimulation: pretreatment 1 hour, then EGF for 5 minutes
Experimental: After 24 hours of culture, the cells are incubated for 48 hours in medium containing no serum in order to return the cells to a state of rest. The cells are then treated for 1 hour either with compound I or with PD98059 (Calbiochem, France Biochem, Meudon, France), a specific inhibitor of MAP kinase activation. The cells are then stimulated (or not) for 5 minutes with 12.5 ng/ml of epidermal growth factor (EGF). The reaction is stopped by two washes with PBS (Gibco-Brl, Cergy-Pontoise, France), at 4° C. containing neither calcium nor magnesium and by adding 150 μl of lysis buffer at 4° C. the composition of which is the following: 10 mM of tris, 150 mM of NaCl, 2 mM of EGTA, 2 mM of dithiothreitol, 1 mM of PMSF, 2 mM of orthovanadate, 10 μg/ml of leupeptin and 10 μg/ml of aprotinin. Measurement of the proteins contained in the extracts is carried out by Bradford's method (Biorad reagents, Ivry-Sur-Seine, France). […] The radioactivity is determined using a Packard scintillation counter (Tricarb 5000CA).

[1] = test system: production of cyclic AMP stimulated by VIP in MCF7 cells; assay: Cyclic AMP production stimulated by VIP in MCF-7 cells; format: cell-based, human; settings: for Inhibition at 30 μM of production of cyclic AMP stimulated by VIP / inhibition at 30 µM: MCF7 cells, compound 30 μM for 30 minutes, then 10^-8 M VIP, n=1; for inhibition at 30 µM: Homo sapiens, 0.5 h
Experimental: The cells are incubated for 30 minutes in the presence or not of compounds I, II, III and IV (30 μM) which are then stimulated by 10^−8 M of VIP. The quantification of cyclic AMP is determined by radioimmunoassay. The data represents the average±MSD (n=5 for the control and n=1 for the different compounds).

heterotrimeric G protein = format: cell-based, human
adenylate cyclase [2] = settings: pretreatment 30 minutes with 30 μM; forskolin 10 μM
adenylate cyclase [3] = test system: adenylate cyclase
MCF7 human tumour cells = assay: In vitro cell proliferation of MCF-7 cells (WST1); format: cell-based; settings: 96 hours treatment, WST1 test, average of 2 experiments, read-out: IC50, inhibition of in vitro growth of MCF7 cells
Experimental: The cells were treated on day 1 for 96 hours with increasing concentrations of up to 50 μM of each of the compounds to be tested. After this period, quantification of cell proliferation is determined by a colorimetric test, based on the cleavage of the WST1 tetrazolum salt by the mitochondrial dehydrogenases in the viable cells, leading to the formation of formazan (Boehringer Mannheim, Meylan, France). These tests are carried out in duplicate with 8 determinations per concentration tested. For each compound to be tested, the values included in the linear part of the sigmoid were retained for linear regression analysis and used to estimate the inhibitory concentration (IC50).

[4] = test system: production of cyclic AMP stimulated by VIP in MCF7 cells; assay: Cyclic AMP production stimulated by VIP in MCF-7 cells; format: cell-based, human

Compound: COc1cccc(-c2cc(=O)c3ccccc3o2)c1N [PD98059, reference compound]
activity of the MAP kinase after EGF stimulation (MAP kinase): halves

Compound: COc1ccccc1-c1cn2c(n1)C(CC1CCCCC1)N(C(=O)C(N)CSSCC(N)C(=O)N1CCn3cc(-c4ccccc4OC)nc3C1CC1CCCCC1)CC2 (stereo not drawn) [compound (I)]
Inhibition at 30 μM of production of cyclic AMP stimulated by VIP [1]: 86% | activity of the MAP kinase after EGF stimulation (MAP kinase): halves | basal activity of the MAP kinase (MAP kinase; treatment for 1 hour, no EGF): doubles | effect on production of cyclic AMP stimulated by choleric toxin (heterotrimeric G protein): greatly inhibited | effect on production of cyclic AMP induced by forskolin (adenylate cyclase [2]): does not modify | effect on adenylate cyclase activity increased by prostaglandin E2 (adenylate cyclase [3]; treatment for 30 minutes): inhibited | IC50 (MCF7 human tumour cells): 9.4 µM | inhibition of accumulation of cyclic AMP stimulated by VIP at 100 μM ([4]; 100 μM, 30-minute pretreatment, VIP 10 nM): almost complete inhibition | inhibition of accumulation of cyclic AMP stimulated by VIP, concentration dependence ([4]; 30-minute pretreatment, VIP 10 nM): in a concentration-dependent manner | effect on response to VIP, treatment for an hour ([4]; 1 hour treatment): sufficient to modify the response to VIP | effect on production of cyclic AMP, longer treatments ([4]; 8 hours and 24 hours treatment, VIP): continue to inhibit

IC50 (MCF7 human tumour cells): 15 µM
Compound: CC(C)CC1c2nc(-c3cccc4ccccc34)cn2CCN1C(=O)C(N)CSSCC(N)C(=O)N1CCn2cc(-c3cccc4ccccc34)nc2C1CC(C)C (stereo not drawn) [compound (II)]
Inhibition at 30 μM of production of cyclic AMP stimulated by VIP [1]: 71%

IC50 (MCF7 human tumour cells): 16.1 µM
Compound: Cc1ccccc1-c1cn2c(n1)C(CC1CCCCC1)N(C(=O)C(N)CS)CC2 (stereo not drawn) [compound (III), 7-(2-amino-1-oxo-3-thiopropyl)-8-(cyclohexylmethyl)-2-(2-methylphenyl)-5,6,7,8-tetrahydroimidazo[1.2a]pyrazine]
Inhibition at 30 μM of production of cyclic AMP stimulated by VIP [1]: 59%

IC50 (MCF7 human tumour cells; Homo sapiens, MCF7): 34.6 µM
Compound: COC(=O)[C@@H](CC(C)C)NC(=O)c1ccc(NC[C@@H](N)CS)cc1-c1ccccc1 [compound (IV)]
inhibition at 30 µM [1]: 52%

Compound: CCCCC1c2nc(-c3ccccc3OC)cn2CCN1C(=O)C(N)CS (stereo not drawn) [compound (V), 7-(2-amino-1-oxo-3-thiopropyl)-8-butyl-2-(2-methoxyphenyl)-5,6,7,8-tetrahydroimidazo[1.2a]pyrazine]
Inhibition at 30 μM of production of cyclic AMP stimulated by VIP [1]: 68%

Compound: CCC(C)C1c2nc(-c3ccccc3OC)cn2CCN1C(=O)C(N)CSSCC(N)C(=O)N1CCn2cc(-c3ccccc3OC)nc2C1C(C)CC (stereo not drawn) [compound (VI), bis-1,1′-[7-(2-amino-1-oxo-3-thiopropyl)-2-(methoxyphenyl)-8-(1-methylpropyl)-5,6,7,8-tetrahydroimidazo[1.2a]pyrazine]]
Inhibition at 30 μM of production of cyclic AMP stimulated by VIP [1]: 52%

Compound: CCCC[C@H]1CN(C(=O)c2cccc3ccccc23)CCN1C[C@@H]1CSSC[C@H](N)C(=O)N1 [compound (VII)]
inhibition at 30 µM [1]: 65%

Compound: CCCCC[C@H](O)/C=C/[C@H]1[C@H](O)CC(=O)[C@@H]1C/C=C\CCCC(=O)O [prostaglandin E2, reference compound]
activity of adenylate cyclase (adenylate cyclase [3]; prostaglandin E2 alone, MCF7 cells): greatly increased

Compound: EGF: epidermal growth factor used to stimulate MAP kinase [reference compound]
increase of MAP kinase activity (MAP kinase; stimulation by EGF for 5 minutes): approximately 7 times

Compound: VIP: vasoactive intestinal peptide, ligand of a G protein-coupled receptor stimulating cyclic AMP synthesis (HSDAVFTDNYTRLRKQMAVKKYLNSILN; ends and bridges not checked; UniProt P01282 125-152, looked up) [reference compound]
intracellular quantity of cyclic AMP ([1]; treatment of MCF-7 cells with VIP alone): increases the intracellular quantity of cyclic AMP in a concentration-dependent manner
